Data reported in patent US8742110B2, “Spiroxazolidinone compounds” (Merck Sharp & Dohme Corp., priority 2010, dated 2014).
Where a name gives a salt, the structure may show the parent alone.

Molecular target: SSTR5 (Homo sapiens (Human), UniProt P35346)
Assay: SSTR5 binding assay
Conditions: CHO-K1 membranes expressing cloned human SSTR5
How it was run: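 Competition binding on membranes from CHO-K1 cells stably expressing cloned human receptor, using radiolabeled somatostatin in 50 mM Tris-HCl pH 7.8 with EGTA, MgCl2 and protease inhibitors. Unlabeled compounds tested from 0.01 nM to 10,000 nM.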

Sequence of SSTR5 (P35346 whole entry): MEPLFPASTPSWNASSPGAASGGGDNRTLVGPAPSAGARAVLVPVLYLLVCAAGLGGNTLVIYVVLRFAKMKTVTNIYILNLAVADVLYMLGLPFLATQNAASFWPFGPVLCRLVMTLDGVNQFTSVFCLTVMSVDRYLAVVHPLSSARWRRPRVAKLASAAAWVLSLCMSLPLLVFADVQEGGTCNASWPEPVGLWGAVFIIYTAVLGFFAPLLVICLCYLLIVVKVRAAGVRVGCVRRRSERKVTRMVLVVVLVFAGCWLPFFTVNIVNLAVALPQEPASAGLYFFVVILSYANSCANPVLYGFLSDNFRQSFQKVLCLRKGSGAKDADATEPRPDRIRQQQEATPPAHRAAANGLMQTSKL

Row | SMILES | IC50 [nM]
1 | CCOc1cc(CN2CCC3(CC2)CN(c2ccc(C(=O)O)cc2C)C(=O)O3)cc(OCC)c1-c1ccc(F)cc1 [Example 3-16, 4-{8-[(2,6-Diethoxy-4′-fluorobiphenyl-4-yl)methyl]-2-oxo-1-oxa-3,8-diazaspiro[4.5]dec-3-yl}-3-methylbenzoic acid, TFA salt] | 1.18
2 | CCOc1cc(CN2CCC3(CC2)CN(c2cc(C(=O)O)ccn2)C(=O)O3)cc(OCC)c1-c1ccc(F)cc1 [Example 3-17, 2-{8-[(2,6-Diethoxy-4′-fluorobiphenyl-4-yl)methyl]-2-oxo-1-oxa-3,8-diazaspiro[4.5]dec-3-yl}pyridine-4-carboxylic acid, TFA salt] | 2.21
3 | CCOc1cc(CN2CCC3(CC2)CN(c2ccc(C(=O)O)c(F)c2)C(=O)O3)cc(OCC)c1-c1ccc(F)cc1 [Example 3-18, 4-{8-[(2,6-Diethoxy-4′-fluorobiphenyl-4-yl)methyl]-2-oxo-1-oxa-3,8-diazaspiro[4.5]dec-3-yl}-2-fluorobenzoic acid, TFA salt] | 1.15
4 | CCOc1cc(CN2CCC3(CC2)CN(c2ccc(C(=O)O)cc2Cl)C(=O)O3)cc(OCC)c1-c1ccc(F)cc1 [Example 3-19, 3-Chloro-4-{8-[(2,6-diethoxy-4′-fluorobiphenyl-4-yl)methyl]-2-oxo-1-oxa-3,8-diazaspiro[4.5]dec-3-yl}benzoic acid, TFA salt] | 0.359
5 | CCOc1cc(CN2CCC3(CC2)CN(c2ccc(C(=O)O)cc2F)C(=O)O3)cc(OCC)c1-c1ccc(F)cc1 [Example 3-21, 4-{8-[(2,6-Diethoxy-4′-fluorobiphenyl-4-yl)methyl]-2-oxo-1-oxa-3,8-diazaspiro[4.5]dec-3-yl}-3-fluorobenzoic acid, TFA salt] | 0.437
6 | CCOc1ccc(-c2ccc(F)c(F)c2F)c(CN2CCC3(CC2)CN(c2ccc(C(=O)O)cc2)C(=O)O3)n1 [Example 4-2, 4-(8-{[6-Ethoxy-3-(2,3,4-trifluorophenyl)pyridin-2-yl]methyl}-2-oxo-1-oxa-3,8-diazaspiro[4.5]dec-3-yl)benzoic acid, TFA salt] | 13.2
7 | CCOc1ccc(-c2ccc(F)cc2F)c(CN2CCC3(CC2)CN(c2ccc(C(=O)O)cc2)C(=O)O3)c1 [Example 4-3, 4-{8-[(4-Ethoxy-2′,4′-difluorobiphenyl-2-yl)methyl]-2-oxo-1-oxa-3,8-diazaspiro[4.5]dec-3-yl}benzoic acid, TFA salt] | 0.49

The remaining compounds from weak to strong by IC50, led by results:

Row | IC50 [nM] | SMILES
8 | 9.15 | CCOc1cc(CN2CCC3(CC2)CN(c2cccc(C(=O)O)c2)C(=O)O3)cc(OCC)c1-c1ccc(F)cc1 [Example 3-14, 3-{8-[(2,6-Diethoxy-4′-fluorobiphenyl-4-yl)methyl]-2-oxo-1-oxa-3,8-diazaspiro[4.5]dec-3-yl}benzoic acid, TFA salt]
9 | 2.79 | CCOc1cc(CN2CCC3(CC2)CN(c2ccc(C(=O)O)c(C(F)(F)F)c2)C(=O)O3)cc(OCC)c1-c1ccc(F)cc1 [Example 3-15, 4-{8-[(2,6-Diethoxy-4′-fluorobiphenyl-4-yl)methyl]-2-oxo-1-oxa-3,8-diazaspiro[4.5]dec-3-yl}-2-(trifluoromethyl)benzoic acid, TFA salt]
10 | 0.793 | CCOc1ccc(-c2cc(F)c(F)cc2F)c(CN2CCC3(CC2)CN(c2ccc(C(=O)O)cc2)C(=O)O3)c1 [Example 4-1, 4-{8-[(4-Ethoxy-2′,4′,5′-trifluorobiphenyl-2-yl)methyl]-2-oxo-1-oxa-3,8-diazaspiro[4.5]dec-3-yl}benzoic acid, TFA salt]
11 | 0.502 | CCOc1ccc(-c2ccc(F)c(F)c2)c(CN2CCC3(CC2)CN(c2ccc(C(=O)O)cc2)C(=O)O3)c1 [Example 4-4, 4-{8-[(4-Ethoxy-3′,4′-difluorobiphenyl-2-yl)methyl]-2-oxo-1-oxa-3,8-diazaspiro[4.5]dec-3-yl}benzoic acid, TFA salt]
12 | 0.129 | CCOc1cc(CN2CCC3(CC2)CN(c2ccc(C(=O)O)c(OC)c2)C(=O)O3)cc(OCC)c1-c1ccc(F)cc1 [Example 3-20, 4-{8-[(2,6-Diethoxy-4′-fluorobiphenyl-4-yl)methyl]-2-oxo-1-oxa-3,8-diazaspiro[4.5]dec-3-yl}-2-methoxybenzoic acid, TFA salt]
